# Assay results as given in patent US8263754B2, “Amphiphiles for protein solubilization and stabilization” (Wisconsin Alumni Research Foundation, priority 2008, dated 2012).
# Entries after “also recorded” stand apart in the source; their conditions may differ. Like-named read-outs stand apart in the source and are kept apart here.
# Legend:
# [1] = test system: T1, LHI-RC superassembly; assay: Stability over time of solubilized, purified LHI-RC superassembly (A875/A680 ratio); set-up: species or system Rhodobacter capsulatus; details: room temperature, 875 nm/680 nm absorption ratio over two to three weeks
# T1 construct: Starting with protein complexes in their native lipid bilayer; made in house; host or cells: Rhodobacter capsulatus U43[pUHTM86Bgl], intracytoplasmic membranes (strain lacks LHII)
# Experimental: FIG. 3. To monitor the ability of micelles of DDM, TPA-2, and MPA-2(C12) to stabilize membrane protein complexes, spectra of the protein purified by each detergent were recorded as a function of time. The initial spectrum (t=0) was acquired directly after elution of the protein from affinity chromatography. The integrity of the LHI-RC superassembly solubilized by these relatively mild detergents was monitored quantitatively from a scatter-corrected absorbance ratio (A875/A680). The ratio of a sample of completely folded and functional supperassembly is >14.5, and this ratio declines dramatically as the multi-subunit complex disassembles and denatures.
# Stability was monitored by following the 875 nm/680 nm absorption ratio over a two to three weeks (absorption at 680 nm arises from oxidation of bacteriochlorophyll that has dissociated from LHI protein).
# Similar criteria and protocols were used to judge the ability of amphiphiles to maintain solubilized and purified superassembly for extended periods. In this case, UV Vis-nearIR spectra were recorded at regular intervals. The degradation of the material could be monitored with the A875/A680 absorbance ratio, which decreased with time and sample integrity as the dominant 875 nm absorption of intact LHI disappeared and a 680 nm band appeared, indicating the presence of unbound, oxidized cofactors.
# [2] = test system: LHI-RC superassembly in Rhodobacter capsulatus membranes; details: for extraction of LHI-RC superassembly from R. capsulatus membranes: solubilized protein, optical spectroscopy
# Text: These complexes, normally embedded in the bacterial membrane, are highly pigmented and several outcomes from an assay are possible, including no degradation, partial degradation or complete degradation upon solubilization, or no solubilization. Thus, graded comparative evaluations could be obtained for a set of candidates such as the amphiphiles described herein.
# In the engineered strain of R. capsulatus employed, the photosynthetic unit was comprised of a very labile LHI complex and a more resilient RC complex. An ideal amphiphile for this system will extract the intact LHI-RC superassembly from a bacterial membrane preparation and maintain the natural interactions among the components. Amphiphiles with a more disruptive effect will dissociate and denature LHI, leaving only intact RC, and even harsher amphiphiles will cause RC degradation. Each of these various outcomes can be assessed unambiguously via optical spectroscopy (FIG. 2 inset).
# Measurements. The starting material for the screening protocols and stability measurements included specialized photosynthetic membranes from an engineered strain of Rhodobacter (R.) capsulatus, U43[pUHTM86Bgl]
# To begin the solubilization and purification process, frozen aliquots of R. capsulatus membranes were thawed, homogenized, and equilibrated to 32° C. for 30 minutes. […] For subsequent experiments, the amphiphiles were evaluated at 10-fold CMC during the solubilization step.
# The membrane samples were allowed to incubate with the amphiphile for 30 minutes at 32° C. The solubilized material was then separated from the membrane debris in an ultracentrifuge at 315,000×g at 4° C. for 30 minutes. […] After a UV-Vis-nearIR absorption spectrum was recorded, the resuspended pellet was discarded. […] The tubes were then incubated and inverted for 1 hour at 4° C.
# Once binding was complete, samples were loaded onto resin-retaining spin columns (e.g., emptied His Spin Trap™ columns; GE Healthcare). The columns were then inserted into a 2 mL microcentrifuge tube to retain the filtered solution during centrifugation. […] Finally, protein was eluted into a fresh microcentrifuge tube with three 0.2 mL elution buffer aliquots (this buffer was identical to binding buffer with the addition of 1 M imidazole).
# The R. capsulatus LHI-RC complexes extracted and purified by this procedure contain large numbers of cofactors that have absorptions at distinct wavelengths, and each component of the LHI-RC superassembly has a different inherent stability outside the lipid bilayer. The solubilization protocol outlined above therefore provides a multifaceted assessment of the efficacy of conventional detergents and novel amphiphiles. UV-Vis absorption spectroscopy data obtained at various stages of the protocol allow one to determine which protein components have degraded at these stages. […] The disruption potential was measured as the yield of superassembly extracted during solubilization (or, alternatively and more precisely, as the absence of superassembly in the pellet from the spin following solubilization).
# The stabilizing propensity was determined from the spectra of the purified protein. An amphiphile was judged to be mild and stabilizing if it allowed the purification of fully intact LHI-RC superassembly (dominant absorption band at 875 nm). […] An amphiphile was judged to be of intermediate strength if it allowed for the purification of fully intact RC with damaged or missing LHI (dominant absorption at 800 nm with a shoulder at 875 nm; damaged LHI still bound to RC absorbs at 760 nm).
# First, solubilization (illustrated in “STEP 1” of FIG. 12) denotes the ability of a surfactant to penetrate, integrate and disrupt a lipid bilayer.
# [3] = target: T2, bacteriorhodopsin (bR) (Halobacterium salinarum, UniProt P02945); details: cited from earlier work
# T2 sequence (P02945 14-262): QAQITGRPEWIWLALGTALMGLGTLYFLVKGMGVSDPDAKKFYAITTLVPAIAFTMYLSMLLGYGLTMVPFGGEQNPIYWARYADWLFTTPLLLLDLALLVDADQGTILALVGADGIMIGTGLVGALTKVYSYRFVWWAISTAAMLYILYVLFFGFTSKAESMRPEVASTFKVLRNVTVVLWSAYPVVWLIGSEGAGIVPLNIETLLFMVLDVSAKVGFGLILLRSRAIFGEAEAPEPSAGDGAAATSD
# [4] = Critical micelle concentration (CMC) by dye solubilization (Orange OT or DPH); type: physicochemical; details: for critical micelle concentration (CMC): aqueous solubilization of Orange OT; for CMC / CMC (%): determined by DPH (diphenylhexatriene) or Orange OT
# Text: Aqueous solubilization of Orange OT was used to determine critical micelle concentrations (CMC). […] Facile self-association of these amphiphiles under these conditions may be hindered by the hydrophilicity and/or steric bulk of the triglucoside and dimaltoside headgroups.
# The Critical Micelle Concentrations (CMCs) of compounds of the invention can be determined by standard techniques known to those of skill in the art. For example, CMCs of the carbohydrate-based amphiphiles described herein can be determined by monitoring uptake of a dye (e.g., Orange OT or 1,6-diphenylhexatriene) with increasing detergent concentration, monitored by UV-visible or fluorescence spectroscopy.
# [5] = target: bovine rhodopsin (Bos taurus, UniProt P02699); details: cited from earlier work
structure (smiles),measurement,setting,value
"CCCCCCCCCCCCO[C@@H]1O[C@H](CO)[C@@H](O[C@H]2O[C@H](CO)[C@@H](O)[C@H](O)[C@H]2O)[C@H](O)[C@H]1O [DDM, dodecyl-β-D-maltopyranoside, reference compound]",stability of solubilized LHI-RC superassembly,[1],begins to degrade immediately
same,extraction of LHI-RC superassembly from R. capsulatus membranes,[2],comparable to TPA-2 and TPA-2-S
"CCCCC(CCCC)(CC(=O)NCCC[N+](C)(C)[O-])c1ccccc1 [TPA0, reference compound]",solubilization of bacteriorhodopsin (bR),[3],effectively solubilized
same,stability of resulting protein solution (bR),[3],stable for several weeks
same,critical micelle concentration (CMC),[4],5.5 mM
same,CMC,[4],4.4 mM
same,CMC (%),[4],0.16%
same,solubilization of bovine rhodopsin,[5],effectively solubilized
same,stability of resulting protein solution (bovine rhodopsin),[5],stable for several weeks
same,extraction of LHI-RC superassembly from R. capsulatus membranes,[2],too harsh to be useful for the preparation of intact superassembly
CCCCC(CCCC)(CC(=O)NC(CO[C@H]1OC(CO)[C@H](O)C(O)[C@H]1O)CO[C@H]1OC(CO)[C@H](O)C(O)[C@H]1O)c1ccccc1 (stereo partly drawn) [TPA2],critical micelle concentration (CMC),[4],3.6 mM
same,CMC,[4],3.6 mM
same,CMC (%),[4],0.24%
same,stability of solubilized LHI-RC superassembly,[1],remains stable for several days
same,875 nm/760 nm absorption ratio,[2]; solubilized protein from R. capsulatus membranes,~8
same,extraction of LHI-RC superassembly from R. capsulatus membranes,[2],intact LHI-RC superassembly in high yield
CCCCC(CCCC)(CC(=O)NC(CO[C@H]1OC(CO)[C@H](O)C(O)C1O)CO[C@H]1OC(CO)[C@H](O)C(O)C1O)C1CCCCC1 (stereo partly drawn) [TPA21],critical micelle concentration (CMC),[4],1.8 mM
same,CMC,[4],1.8 mM
same,CMC (%),[4],0.12%
same,stability of solubilized LHI-RC superassembly,[1],more stabilizing than those of TPA-2
same,extraction of LHI-RC superassembly from R. capsulatus membranes,[2]; listed as TPA-2-S,"as good as or better than TPA-2 at extracting membrane proteins; also recorded: at least as effective as TPA-2, if not superior; also recorded: equal to or superior to TPA-2 at extracting membrane proteins"
